Experimental data: US10815235B2, “Polycyclic compounds and uses thereof” (priority 2017, dated 2020)
pEC50, pIC50: −log10 of the molar value. Like-named read-outs stand apart in the source and are kept apart here.

Tests used:
[1] = biological target: T1, Serotonin 5-HT1A receptor (Homo sapiens, UniProt P08908); experiment: GTPγS Scintillation Proximity Assay, agonist and antagonist mode; assay type: biochemical
T1 sequence (P08908 1-422): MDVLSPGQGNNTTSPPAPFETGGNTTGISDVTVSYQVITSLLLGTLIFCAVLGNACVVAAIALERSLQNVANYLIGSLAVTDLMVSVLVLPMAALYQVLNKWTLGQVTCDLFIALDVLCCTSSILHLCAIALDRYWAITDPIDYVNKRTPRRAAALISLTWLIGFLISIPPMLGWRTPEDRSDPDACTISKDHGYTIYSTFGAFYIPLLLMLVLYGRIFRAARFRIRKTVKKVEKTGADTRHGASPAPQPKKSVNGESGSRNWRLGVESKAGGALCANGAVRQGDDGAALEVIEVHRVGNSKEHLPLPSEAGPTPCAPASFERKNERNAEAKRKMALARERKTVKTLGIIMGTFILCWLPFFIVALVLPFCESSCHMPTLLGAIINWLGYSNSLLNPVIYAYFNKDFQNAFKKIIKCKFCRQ
Procedure: (§1) Antagonist and agonist activities were determined using a GTPγS Scintillation Proximity Assay. The assay was prepared as follows: Membrane extracts were prepared from recombinant human Dopamine D2L, D3; Serotonin 5-HT1A, 5-HT1B, 5-HT1D and 5-HT1F receptors.
(§2) Samples were tested by proprietary biological assays by Ogeda S. A., Euroscreen FAST Business Unit, Rue Adrienne Bolland, 47 B-6041 Gosselies, Belgium. Each protein assay was prepared using the following conditions.
5-HT1A • Assay buffer: 20 mM HEPES pH 7.4; 100 mM NaCl, 10 μg/ml saponin, 3 mM MgCl2, 0.1% protease-free BSA; • Membranes: recombinant 5-HT1A membrane extracts thawed on ice and diluted in assay buffer to give 1 mg/ml (10 μg/well) and kept on ice; • GDP: diluted in assay buffer to give a 3 μM final assay concentration; • Beads: PVT-WGA (Perkin Elmer, RPNQ001), diluted in assay buffer at 50 mg/ml (0.5 mg/well); and • GTPγ^35S: (PerkinElmer NEG030X), diluted in assay buffer to give 0.1 nM;
Membranes were mixed with GDP (volume:volume 1:1) and incubated for at least 15 min on ice. In parallel, GTPγ[^35S] is mixed with the beads (volume:volume 1:1) just before starting the reaction.
To determine agonist activity, the following reagents were added in the wells of an Optiplate (Perkin Elmer): 50 μL of test or reference ligand, 10 μL of assay buffer, 20 μl of the membranes:GDP mix, and 20 μL of the GTPγ[^35S]:beads mix. EC50 values were used to determine whether a compound acted as an agonist.
To determine antagonist activity, the following reagents were added in the wells of an Optiplate (Perkin Elmer): 50 μL of test or reference ligand, 20 μL of the membranes:GDP mix, then the plate is incubated 15 minutes at room temperature. After incubation, 10 μL of reference agonist at historical EC80 (final concentration) was added, followed by 20 μL of the GTPγ[^35S]:beads mix.
The plates were covered with a top seal, mixed on an orbital shaker for 2 min, and then incubated for 1 hour at room temperature. Then the plates were centrifuged for 10 min at 2000 rpm, incubated at room temperature 1 hour and counted for 1 min/well with a PerkinElmer TopCount reader. IC50 values were used to determine whether a compound acted as an antagonist.

[2] = biological target: T2, Serotonin 5-HT1F receptor (Homo sapiens, UniProt P30939); experiment: as above; assay type: biochemical
T2 sequence (P30939 1-366): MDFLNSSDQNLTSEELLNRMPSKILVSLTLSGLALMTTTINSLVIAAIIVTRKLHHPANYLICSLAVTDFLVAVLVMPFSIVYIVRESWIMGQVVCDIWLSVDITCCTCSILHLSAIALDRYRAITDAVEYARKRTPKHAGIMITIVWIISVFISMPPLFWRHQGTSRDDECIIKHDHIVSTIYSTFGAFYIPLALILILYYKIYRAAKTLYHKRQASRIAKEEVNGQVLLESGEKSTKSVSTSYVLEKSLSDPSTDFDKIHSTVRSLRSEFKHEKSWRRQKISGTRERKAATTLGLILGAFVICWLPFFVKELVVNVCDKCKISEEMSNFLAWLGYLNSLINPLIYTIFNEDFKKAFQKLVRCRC
Procedure: as §1, §2
5-HT1F • Assay buffer: 20 mM HEPES pH 7.4; 100 mM NaCl, 10 μg/ml saponin, 1 mM MgCl2; • Membranes: recombinant 5-HT1F membrane extracts thawed on ice and diluted in assay buffer to give 0.5 mg/ml (5 μg/well) and kept on ice; • GDP: diluted in assay buffer to give a 3 μM final assay concentration; • Beads: PVT-WGA (Perkin Elmer, RPNQ001), diluted in assay buffer at 50 mg/ml (0.5 mg/well); and • GTPγ^35S: (PerkinElmer NEG030X), diluted in assay buffer to give 0.1 nM.
Membranes were mixed with GDP (volume:volume 1:1) and incubated for at least 15 min on ice. […]
The plates were covered with a top seal, mixed on an orbital shaker for 2 min, and then incubated for 1 hour at room temperature. Then the plates were centrifuged for 10 min at 2000 rpm, incubated at room temperature 1 hour and counted for 1 min/well with a PerkinElmer TopCount reader. […]

[3] = antagonist mode, bound stated, read-out: IC50 value for the Serotonin 5-HT1A receptor
[4] = membrane extracts, vs reference agonist at EC80, read-out: Antagonist Activity (IC50), 5-HT1A

Structure (SMILES)	pEC50 ([1]; agonist mode, bound stated, read-out: EC50 value for the Serotonin 5-HT1A receptor)	pIC50 [1, 3]	pIC50 [1, 4]	pEC50 ([1]; membrane extracts, read-out: Agonist Activity (EC50), 5-HT1A)	pEC50 ([2]; agonist mode, bound stated, read-out: EC50 value for the Serotonin 5-HT1F receptor)	pEC50 ([2]; membrane extracts, read-out: Agonist Activity (EC50), 5-HT1F)
CCN(CC)C(=O)N[C@H]1C[C@@H]2c3cccc4[nH]c(Br)c(c34)C[C@H]2N(C)C1 [Compound A8H, 3-((6aR,9S, 10aR)-5-bromo-7-methyl-4,6,6a,7,8,9,10,10a-octahydroindolo[4,3-fg]quinolin-9-yl)-1,1-diethylurea]	> 6.00	> 6.00	6.80	7.51	–	–
CCN(CC(F)(F)F)C(=O)N[C@H]1C[C@@H]2c3cccc4[nH]c(C5CC5)c(c34)C[C@H]2N(C)C1 [Compound A17H, 3-((6aR,9S,10aR)-5-cyclopropyl-7-methyl-4,6,6a,7,8,9,10,10a-octahydroindolo[4,3-fg]quinolin-9-yl)-1-ethyl-1-(2,2,2-trifluoroethyl)urea]	–	> 6.00	6.23	–	–	–
CC[C@@H](CO)NC(=O)[C@@H]1C[C@@H]2c3cccc4c3c(c(C3CC3)n4C)C[C@H]2N(C)C1 [Compound D13H, (6aR,9R,10aR)-5-cyclopropyl-N—((S)-1-hydroxybutan-2-yl)-4,7-dimethyl-4,6,6a,7,8,9,10,10a-octahydroindolo[4,3-fg]quinoline-9-carboxamide]	–	–	–	–	> 6.00	6.59
